Results published in patent publication US20240132931A1, “Biological Indicator with Enhanced Volatile Organic Compound Detection” (O&M Halyard, Inc., priority 2022, published 2024).

Experiments:
[1] = test system: Geobacillus stearothermophilus spores; experiment: VOC production (SPME, GC-MS) during the first 20 minutes of spore germination, growth medium with or without additive (Example 1); format: cell-based
Method: Spore suspension of Geobacillus stearothermophilus (1×10^6 CFU/0.1 mL) were diluted to reach a concentration of 500-800 CFU/30-50 μL after being heat shock for 15 min at 95-99° C. to kill all vegetative cell that might have been present in the suspension.
A modified soybean casein digest broth was diluted (10×) with HPLC grade water and sterilize by filtration 0.45 μm to limit the amount of VOC in the background. was used with or without the addition of an additive.
For the VOC testing, 0.5 mL of the sterile diluted growth medium was transferred in each VOC collection vials. The vials were prewarm at 60° C. for at least 10 minutes. Before starting the VOC sampling, the additive was added to the vials, then the spores according to Table 1 in function of the test to be performed. The VOC were sampled by inserting the SPME fiber into the vial as soon as the spores were added, and the vials were put back in the temperature control systems. The SPME fiber use was an assembly Divinylbenzene/Carboxen/Polydimethylsiloxane (DVB/CAR/PDMS) (Sigma Aldrich—product number 57328-U from Supelco) conditioned at 270° C. for 30 minutes before use. The SPME fibers were removed 20 minutes after the addition of the spores and were analyzed using the GC-MS according to the lab protocols for the apparatus.

[2] = test system: Geobacillus stearothermophilus spores; experiment: VOC production (SPME, GC-MS) during the first 15 minutes of spore germination, growth medium with L-threonine or glucose (Example 2); format: cell-based
Method: Spore suspension of Geobacillus stearothermophilus (1×10^6 CFU/0.1 mL) were heated for 30 min at 99-100° C. to kill all vegetative cell that might have been present in the suspension.
A growth medium composed of a modified soybean casein digest broth diluted (200×) with the sterilized germination medium (1,0 mM L-valine in 10 mM sodium phosphate buffer (pH 8.0) as described by “thou T, Dong Z, Setlow P, Li Y-q (2013), Kinetics of Germination of Individual Spores of Geobacillus stearothermophilus as Measured by Raman Spectroscopy and Differential Interference Contrast Microscopy. PLoS ONE 8(9): e74987)” was used with or without the addition of L-threonine or glucose at 5 mM. One test was also performed with the germination medium by itself, without the modified soybean casein digest broth diluted (200×) and the additives. The controls included the SPME fiber alone, in the presence of 2500 μg methanol, and growth medium with and without the L-Threonine or glucose.
For the VOC testing, 0.5 mL of the control solution (methanol) or sterile growth medium was transferred in each VOC collection vials. The vials were prewarm at 65° C. for at least 10 minutes. […] The SPME fibers were removed 15 minutes after the addition of the spores and were analyzed using the GC-MS according to the lab protocols for the apparatus.

[3] = GM + spores (about 500-800 CFU) + additive 5 mM, 60° C., 20 minutes

**Q.** What does the source list for `CO[C@H]1O[C@H](CO)[C@@H](O)[C@H](O)[C@H]1O` [Additive, Methyl alpha-D-glucopyranoside]?
**A.** Detection of 1-Nonene, Nonane, 1-Octene, Octane, Heptane ([1]; Example 1): detected only in the presence of the additive; Propene concentration change from the presence of the additive ([1]; Example 1): not increasing; 1-butanol intensity in comparison to the growth medium intensity [1, 3]: (+up to 3X); Acetaldehyde intensity in comparison to the growth medium intensity [1, 3]: to 2X; Formaldehyde intensity in comparison to the growth medium intensity [1, 3]: (+10X); Nonanal Octanal Heptanal intensity in comparison to the growth medium intensity [1, 3]: (up to 3X)

**Q.** With `C[C@@H](O)[C@H](N)C(=O)O` [L-threonine] as the compound, how does the “Formation of common VOC such as 1-nonene” value ([2]; Example 2) read?
**A.** The value was “leads to the formation”.

**Q.** And the “Butanal produced (qualitative amount)” value ([2]; GM + 5 mM additive + 5000-10000 spores, 65° C., 15 minutes)?
**A.** The value was “<control”.
